From US20160022642A1, “Compounds Useful for Promoting Protein Degradation and Methods Using Same” (Yale University, priority 2014, published 2016)

What was measured:
Format in all cases: cell-based
Hsp70 = Hsp70 immunoblot in LNCaP cells treated with SARD 279 and geldanamycin; conditions: 24 hours
Procedure: (§1) FIGS. 32A-32B show a series of representative western blots of SARD-mediated AR degradation according to the present description. LNCaP cells were treated with indicated compounds for 24 hours and SARD 279 and RU59063 were used at 2.5 μM and 25 μM, respectively (FIG. 32A).
(§2) LNCaP and PC3 cells were obtained from ATCC. LNCaP/AR-876L and LNCaP/AR cells were generated by infecting LNCaP cells with the 876L or WT, respectively, AR. All cells were grown at 37° C. in RPMI and supplemented with 10% FBS, 100 U/ml carbenicillin and 100 μg/ml streptomycin. AR (5153) and Hsp70 (4872) antibodies were obtained from Cell Signaling. β-actin antibody (AC-74) was purchased from Sigma. Geldanamycin was purchased from Invivogen. The indicated cells were washed twice with cold PBS, and the cells were lysed in lysis buffer (1×PBS, 1% NP-40, 1 mM EDTA, 40 mM HEPES) with protease inhibitors. The lysates were cleared by centrifugation at 10,000 g for 5 min. The total protein concentration was determined by Bradford assay, and 10 μg of protein was loaded onto an 8% Bis-Tris gel. The blots were processed by standard procedures with the indicated antibodies, and the band intensities were quantified by ImageJ (US National Institutes of Health).

androgen receptor (AR) = target: T1, androgen receptor (AR) (Homo sapiens, UniProt P10275, T878A); assay: SARD-mediated AR degradation, western blot in LNCaP cells
T1 construct: endogenous in cells; host or cells: LNCaP
T1 sequence (P10275 1-920 T878A): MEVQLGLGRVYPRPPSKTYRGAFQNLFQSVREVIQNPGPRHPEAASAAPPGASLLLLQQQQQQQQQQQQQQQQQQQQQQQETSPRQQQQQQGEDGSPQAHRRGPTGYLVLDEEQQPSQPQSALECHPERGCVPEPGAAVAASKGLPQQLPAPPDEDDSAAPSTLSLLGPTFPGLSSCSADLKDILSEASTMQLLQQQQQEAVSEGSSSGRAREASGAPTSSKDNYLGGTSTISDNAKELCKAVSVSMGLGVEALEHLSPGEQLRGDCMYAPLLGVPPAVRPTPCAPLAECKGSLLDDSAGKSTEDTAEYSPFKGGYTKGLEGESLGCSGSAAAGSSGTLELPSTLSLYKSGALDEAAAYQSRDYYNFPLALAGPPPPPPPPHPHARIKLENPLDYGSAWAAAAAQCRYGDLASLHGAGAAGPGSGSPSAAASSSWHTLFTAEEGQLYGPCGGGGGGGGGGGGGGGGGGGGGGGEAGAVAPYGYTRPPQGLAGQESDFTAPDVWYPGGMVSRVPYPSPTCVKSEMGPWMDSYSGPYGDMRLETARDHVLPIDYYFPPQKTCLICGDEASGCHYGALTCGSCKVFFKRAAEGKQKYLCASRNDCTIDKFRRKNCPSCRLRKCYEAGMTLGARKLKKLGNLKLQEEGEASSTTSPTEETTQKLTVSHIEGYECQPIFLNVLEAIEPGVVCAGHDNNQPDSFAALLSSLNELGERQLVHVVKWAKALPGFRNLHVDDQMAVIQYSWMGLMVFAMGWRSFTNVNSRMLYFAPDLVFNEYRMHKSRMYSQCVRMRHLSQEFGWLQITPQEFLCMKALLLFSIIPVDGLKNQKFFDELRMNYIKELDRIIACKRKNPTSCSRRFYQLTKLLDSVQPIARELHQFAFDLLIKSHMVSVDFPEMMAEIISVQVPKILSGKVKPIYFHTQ
Procedure: FIG. 15A illustrates representative western blots of SARD mediated AR degradation. FIG. 15B is a graph illustrating the percentage of remaining AR as a function of SARD compound concentration.
as §1, §2

LnCAP cells [1] = assay: LNCaP cell proliferation assay in the presence of 1 nM R1881 (CellTiterGlo); conditions: 5% charcoal stripped serum, 7 days
Procedure: (§3) LNCaP-AR cells were treated with hormone for 18 hours as indicated and then, RNA was isolated and FKBP52 expression was assessed by qPCR. GAPDH was used to normalize expression. Error represents standard deviation (Panel A). LNCaP cell proliferation assay in the presence of indicated compounds at 3 μM and then, the assay was performed in 10% FBS, and only viable cells were counted at each indicated day (Panel B). […] LNCaP/AR-F876L cells were treated with indicated compounds for 24 hours in 5% charcoal stripped FBS, and then, mRNA was prepared and the relative PSA mRNA was determined by qPCR (Panel D).
For FIG. 33, panel C, the LNCaP cells were washed with PBS, seeded at 5,000 cells per well in a 96-well plate in 5% Charcoal Stripped Serum (Omega) in phenol-red free RPMI media (Invitrogen). […] Baseline CellTiterGlo (Promega) reading was taken immediately after addition of compounds and 7 days later. The data are plotted so that the Y axis reflects the degree of proliferation at Day 7, compared to Day 0.

HEK 293T = assay: Cell proliferation assay with HEK 293T cells; conditions: 3 μM
Procedure: (§4) FIGS. 35A-35B are a series of graphs illustrating results of cell proliferation assay. Cell proliferation assay was performed with AR-negative PC-3 prostate cancer cells (FIG. 35A). Indicated compounds at shown doses were added to previously plated PC-3 cells in phenol-red free RPMI, supplemented with 5% charcoal stripped FBS. CellTiterGlo readings were taken at indicated days and the data are plotted as a % of proliferation from Day 0. Cell proliferation assay was performed with HEK293 cells (FIG. 35B), which were plated at 2,000 cells/well in a 6-well plate and dosed with indicated compounds at 3 μM.

[2] = test system: PC3 human prostate cancer cell line; assay: Cell proliferation assay with AR-negative PC-3 prostate cancer cells (CellTiterGlo); conditions: 5% charcoal stripped FBS
Procedure: as §4

HeLa cells = assay: General cell toxicity in AR-independent HELA cells; conditions: 1 μM, 48 h
Procedure: (§5) To access general cell toxicity, AR-independent HEK293 and HELA cells were treated with 1 μM SARD 279.

HEK293 cells = assay: General cell toxicity in AR-independent HEK293 cells; conditions: HEK293, 1 μM, 48 h
Procedure: as §5

[3] = test system: AR target genes (FKBP52, PMPEA 1, NKX3.1) in LNCaP-AR cells; assay: AR-dependent gene expression by qPCR in LNCaP-AR cells; conditions: 18 hours; for AR agonist activity: expression of AR target genes: qPCR normalized to GAPDH
Procedure: as §3
FIGS. 34A-34B are a series of graphs illustrating relative pMPEA1 mRNA levels (FIG. 34A) or relative NKX3.1 mRNA levels (FIG. 34B) after treated with SARDS compounds according to the present description. LNCaP-AR cells were treated with hormone for 18 hours and subsequently, mRNA was isolated and FKBP52 expression was assessed by qPCR. GAPDH was used to normalize expression. Error represents standard deviation.
The effects of the SARDS in the present description on AR-dependent gene expression in AR overexpressing LNCaP-AR cells, a validated cellular model of CRPC were examined. LNCaP-AR cells were treated with hormone for 18 hours as indicated. RNA was isolated and FKBP52 expression was assessed by QPCR. GAPDH was used to normalize expression. Error represents standard deviation.

LnCAP cells [4] = assay: Proliferation of androgen-dependent LnCAP cells
Procedure: as §3
For FIG. 33, panel B, 2,000 cells in RPMI media, supplemented with 10% FBS, 100 U/ml carbenicillin and 100 μg/ml streptomycin, were plated into each well in a 6-well plate. Two days after plating, the cells were treated with indicated compounds. The number of cells in each well was counted with a hemocytometer using Trypan blue to distinguish viable cells.

Structure (SMILES) | AR degradation (in words) (androgen receptor (AR)) | Proliferation of HEK 293T cells (HEK 293T) | Proliferation of PC3 cells [2] | AR agonist activity: expression of AR target genes [3] | other results
COC1=C2C[C@@H](C)C[C@H](OC)[C@H](O)[C@@H](C)/C=C(\C)[C@H](OC(N)=O)[C@@H](OC)/C=C\C=C(/C)C(=O)NC(=CC1=O)C2=O [geldanamycin, (4E,6Z,8S,9S,10E,12S,13R,14S,16R)-13-hydroxy-8,14,19-trimethoxy-4,10,12,16-tetramethyl-3,20,22-trioxo-2-azabicyclo[16.3.1]docosa-1(21),4,6,10,18-pentaen-9-yl carbamate] |  |  |  |  | Hsp70 levels (immunoblot) (Hsp70): geldanamycin-dependent increase in Hsp70 levels
CCOCCOCCNC(=O)CCCN1C(=S)N(c2ccc(C#N)c(C(F)(F)F)c2)C(=O)C1(C)C [SARD 280, 4-(3-(4-Cyano-3-(trifluoromethyl)phenyl)-5,5-dimethyl-4-oxo-2-thioxoimidazolidin-1-yl)-N-(2-(2-ethoxyethoxy)ethyl)butanamide] | affected degradation only at higher concentrations and did not achieve complete AR degradation at the concentrations assayed |  |  |  | 
CNC(=O)c1ccc(N2C(=S)N(c3ccc(C#N)c(C(F)(F)F)c3)C(=O)C2(C)C)cc1F [MDV3100, reference compound] |  | unaffected | unaffected |  | Antiproliferative activity in the presence of 1 nM R1881 (LnCAP cells [1]): ineffective in the presence of higher androgen levels
CC1(C)C(=O)N(c2ccc(C#N)c(C(F)(F)F)c2)C(=S)N1CCCC(=O)NCCOCCOC(=O)CC12CC3CC(CC(C3)C1)C2 [SARD 279, 2-(2-(4-(3-(4-Cyano-3-(trifluoromethyl)phenyl)-5,5-dimethyl-4-oxo-2-thioxoimidazolidin-1-yl)butanamido)ethoxy)ethyl 2-(adamantan-1-yl)acetate] |  |  |  |  | Cytotoxicity compared to vehicle (HeLa cells): did not display cytotoxic results; Cytotoxicity compared to vehicle (HEK293 cells): did not display cytotoxic results; DC50 (androgen receptor (AR); read-out: DC50 (half maximum degradation concentration) of AR): 1000 nM
CC1(C)C(=O)N(c2ccc(C#N)c(C(F)(F)F)c2)C(=S)N1CCCCO [RU59063, 4-[3-(4-hydroxybutyl)-4,4-dimethyl-5-oxo-2-thioxoimidazolidin-1-yl]-2-(trifluoromethyl)benzonitrile, reference compound] | no degradation was detected |  |  | increasing expression of a number of AR target genes | 
CC1(C)C(=O)N(c2ccc(C#N)c(C(F)(F)F)c2)C(=S)N1CCCC(=O)NCCOCCOCCOCCOC12CC3CC(CC(C3)C1)C2 [SARD 033, N-(2-(2-(2-(2-(Adamantan-1-yloxy)ethoxy)ethoxy)ethoxy)ethyl)-4-(3-(4-cyano-3-(trifluoromethyl)phenyl)-5,5-dimethyl-4-oxo-2-thioxoimidazolidin-1-yl)butanamide] |  | unaffected | unaffected | no such agonist activity | Antagonism of gene expression induced by R1881 ([3]; qPCR): antagonized gene expression induced by the synthetic androgen R1881; Cell growth / proliferation of LnCAP cells (LnCAP cells [4]; 1 μM, several days): significantly attenuated cell growth; Proliferation of LNCaP cells, viable cell count (LnCAP cells [4]; 3 μM, 10% FBS, hemocytometer with Trypan blue, over 9 days): suppressed proliferation with similar efficacy to MDV3100
